The record followed here is PubChem BioAssay (NCI).

Some test systems named below: 786-0 renal; A549 NSCLC; COLO 205 colon; EKVX NSCLC; HCT-116 colon; MALME-3M melanoma; RXF 393 renal; SF-539 CNS; SK-MEL-2 melanoma; SNB-19 CNS.
What all share (test): growth of human tumour cells (NCI), 48 h

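The compound was tested at five concentrations on cells cultured in 96-well plates, with a 48-hour exposure period. Here, GI50 denotes the concentration required for 50% inhibition of growth. TGI denotes the concentration required for complete inhibition of growth.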

Regarding `CCOC(=O)C1=C(Nc2ccccc2)OC/C1=N\NC(=O)Cc1ccccc1`, the TGI in the test with 786-0 renal, with A549 NSCLC, in the test with COLO 205 colon, in the test on EKVX NSCLC, in the test on HCT-116 colon and with MALME-3M melanoma was > 50 µM each time. For the same molecule, the TGI with RXF 393 renal, in the test with SF-539 CNS, in the test on SK-MEL-2 melanoma and in the test on SNB-19 CNS was > 50 µM throughout.
Consider `CCOc1ccc(Cc2nccc3cc(OCC)c(OCC)cc23)cc1OCC`, for which the GI50 in the test with 786-0 renal was 9.57 µM; with A549 NSCLC, 5.7 µM; with COLO 205 colon it was 4.28 µM; in the test on EKVX NSCLC it was 3.64 µM; in the test with HCT-116 colon, 1.52 µM; in the test with MALME-3M melanoma, 8.76 µM. Besides, the GI50 with RXF 393 renal is 10.4 µM; with SF-539 CNS it was 5.87 µM; with SK-MEL-2 melanoma, 11.7 µM; in the test on SNB-19 CNS, 10.7 µM. For the same molecule, the TGI with 786-0 renal stood at 40.4 µM; in the test on A549 NSCLC, 27.8 µM; in the test with COLO 205 colon, 19 µM; with EKVX NSCLC, 27.1 µM; with HCT-116 colon, 13.4 µM; in the test with MALME-3M melanoma, 26 µM. Further, the TGI in the test on RXF 393 renal is 23.1 µM; with SF-539 CNS, 20.7 µM; in the test on SK-MEL-2 melanoma, 26.1 µM; in the test with SNB-19 CNS, 31.8 µM.
In the case of `Cc1c2ccccc2c(C)c2c3c(ccc12)C(=O)C=CC3=O`, the TGI was > 62.2 µM in the test with 786-0 renal; > 100 µM with A549 NSCLC; 31.5 µM in the test on COLO 205 colon; > 85 µM in the test with EKVX NSCLC; 49.7 µM in the test on HCT-116 colon; > 79.2 µM in the test with MALME-3M melanoma. Also, the TGI in the test with RXF 393 renal was 27.4 µM; with SF-539 CNS, > 100 µM; with SK-MEL-2 melanoma, > 84.6 µM; in the test on SNB-19 CNS, > 100 µM.
Consider `CCCNc1nc(N(C)O)nc(N(C)O)n1`, for which the GI50 in the test on 786-0 renal is 2.53 µM; in the test with A549 NSCLC, 1.8 µM; with COLO 205 colon, 2.23 µM; in the test with EKVX NSCLC, 2.04 µM; with HCT-116 colon, 1.63 µM; in the test on MALME-3M melanoma, 2.96 µM. Besides, the GI50 in the test with RXF 393 renal is 2.96 µM; with SF-539 CNS it was 2.51 µM; in the test on SK-MEL-2 melanoma, 2.59 µM; with SNB-19 CNS it was 4.07 µM. Further, the TGI was > 43.4 µM in the test with 786-0 renal; > 100 µM in the test on A549 NSCLC; 32.2 µM in the test with COLO 205 colon; > 100 µM in the test with EKVX NSCLC; > 53.8 µM in the test on HCT-116 colon; 32.5 µM with MALME-3M melanoma. Further, the TGI with RXF 393 renal is > 62 µM; in the test on SF-539 CNS, > 54.4 µM; in the test on SK-MEL-2 melanoma, 7.76 µM; in the test with SNB-19 CNS, > 100 µM.
For `OC(c1cc(C(O)(C(F)(F)F)C(F)(F)F)ncn1)(C(F)(F)F)C(F)(F)F`, the TGI in the test on 786-0 renal, with A549 NSCLC, in the test with COLO 205 colon, in the test on EKVX NSCLC, in the test with HCT-116 colon and in the test with MALME-3M melanoma was > 10 µM in each case. Further, the TGI in the test with RXF 393 renal, in the test with SF-539 CNS, with SK-MEL-2 melanoma and with SNB-19 CNS was > 10 µM in each case.
On to `O=C(c1cc(=O)c2ccc(O)cc2o1)c1ccc(Cl)cc1Cl`, for which the TGI in the test with 786-0 renal is > 64.4 µM; with A549 NSCLC, > 100 µM; in the test on COLO 205 colon it was > 38.3 µM; in the test on EKVX NSCLC, 99.3 µM; with HCT-116 colon, > 54.1 µM; in the test with MALME-3M melanoma it was > 94.7 µM. For the same molecule, the TGI in the test with RXF 393 renal was 98.4 µM; with SF-539 CNS, > 25.4 µM; in the test on SK-MEL-2 melanoma it was > 100 µM; in the test with SNB-19 CNS, > 100 µM.
Consider `Nc1nc(N)c2cc(CNc3ccc(Cl)c(Cl)c3)ccc2n1`, for which the GI50 with 786-0 renal was 0.391 µM; in the test with A549 NSCLC, 0.0631 µM; in the test on COLO 205 colon, 1.11 µM; in the test with EKVX NSCLC it was 0.742 µM; in the test on HCT-116 colon it was 0.0839 µM; in the test on MALME-3M melanoma, 1.21 µM. The GI50 in the test on RXF 393 renal is 0.748 µM; with SF-539 CNS, 0.825 µM; in the test with SK-MEL-2 melanoma it was 1.52 µM; with SNB-19 CNS, 0.822 µM. The TGI in the test on 786-0 renal worked out at 1.73 µM; with A549 NSCLC, 1.34 µM; in the test with COLO 205 colon, 2.33 µM; in the test with EKVX NSCLC it was 2.18 µM; in the test on HCT-116 colon it was 1.31 µM; in the test on MALME-3M melanoma, 2.77 µM. Besides, the TGI with RXF 393 renal stood at 2.18 µM; in the test on SF-539 CNS, 2.13 µM; with SK-MEL-2 melanoma, 3.01 µM; in the test with SNB-19 CNS, 2.09 µM.
For `O=C(c1cc2ccccc2[nH]1)C(O)(c1cc2ccccc2[nH]1)c1cc2ccccc2[nH]1`, the TGI with 786-0 renal, with A549 NSCLC, in the test on COLO 205 colon, in the test on EKVX NSCLC, in the test on HCT-116 colon and in the test on MALME-3M melanoma was > 246 µM in each case. Also, the TGI with RXF 393 renal, in the test on SF-539 CNS, in the test with SK-MEL-2 melanoma and in the test with SNB-19 CNS was > 246 µM throughout.
On to `O=C(CC(=O)N1N=C(n2ccc3ccccc32)CC1c1ccccc1)Nc1cccc(Cl)c1` (stereo not given), for which the TGI in the test on 786-0 renal, with A549 NSCLC, in the test on COLO 205 colon, in the test with EKVX NSCLC, in the test with HCT-116 colon and in the test on MALME-3M melanoma was > 100 µM throughout. In addition, the TGI in the test on RXF 393 renal, in the test on SF-539 CNS, in the test with SK-MEL-2 melanoma and in the test on SNB-19 CNS was > 100 µM in each case.
Turning to `CC(=O)NNc1nc(C)c(C(=O)NNC(=O)C(=O)Nc2ccc(C)c(C)c2)s1`, the TGI in the test with 786-0 renal, in the test on A549 NSCLC, with COLO 205 colon, with EKVX NSCLC, in the test with HCT-116 colon and in the test with MALME-3M melanoma was > 100 µM each time. The TGI with RXF 393 renal, with SF-539 CNS, in the test with SK-MEL-2 melanoma and in the test on SNB-19 CNS was > 100 µM each time.
Take `CCN1CCN(CCOc2ccc(CNc3ccc4nc(CCC5CCCCC5)[nH]c4c3)cc2)CC1`: the GI50 with 786-0 renal is 1.57 µM; in the test with A549 NSCLC it was 2.61 µM; in the test on COLO 205 colon, 1.76 µM; in the test on EKVX NSCLC, 2.25 µM; in the test on HCT-116 colon, 1.32 µM; in the test on MALME-3M melanoma, 1.57 µM. The GI50 with RXF 393 renal was 1.3 µM; with SF-539 CNS, 1.57 µM; in the test with SK-MEL-2 melanoma it was 1.92 µM; in the test with SNB-19 CNS, 3.58 µM. Besides, the TGI with 786-0 renal was 3.39 µM; in the test on A549 NSCLC it was 8.13 µM; with COLO 205 colon it was 3.52 µM; in the test on EKVX NSCLC, 9.15 µM; with HCT-116 colon, 2.87 µM; with MALME-3M melanoma, 3.08 µM. In addition, the TGI was 3.31 µM with RXF 393 renal, 3 µM with SF-539 CNS, 3.77 µM with SK-MEL-2 melanoma and 13 µM in the test with SNB-19 CNS.
